Columns and labels:
Assay type in all cases: biochemical
[1] = biological target: T1, Hck-1 (Homo sapiens, UniProt P08631); experiment: Kinase inhibition assay (33P transfer), Hck; conditions: Table 6, Hck-1 kinase inhibition class
T1 construct: Kinases are expressed as either kinase domains or full length constructs; made in house

[2] = biological target: T2, ErbB2 (Homo sapiens, UniProt P04626); experiment: Kinase inhibition assay (33P transfer), ErbB2; conditions: read-out: ErbB2-2
T2 construct: Kinases are expressed as either kinase domains or full length constructs; made in house
In short: (§1)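 Using immobilised substrate copolymers (poly(Glu,Tyr) 4:1; poly(Arg,Ser) 3:1) and [33P]ATP, purified fusion kinases were allowed to react; plates were then rinsed in 0.5% phosphoric acid and counted in a scintillation detector. Half-maximal inhibition of label transfer defines IC50.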

[3] = biological target: T3, Ret-1 (Homo sapiens, UniProt P07949); experiment: Kinase inhibition assay (33P transfer), Ret; conditions: Table 6, Ret-1 kinase inhibition class
T3 construct: Kinases are expressed as either kinase domains or full length constructs; made in house

[4] = biological target: T4, Fyn (Homo sapiens, UniProt P06241); experiment: Kinase inhibition assay (33P transfer), Fyn; conditions: read-out: Fyn-1
T4 construct: Kinases are expressed as either kinase domains or full length constructs; made in house
In short: as §1

[5] = biological target: T5, Zap-70 (Homo sapiens, UniProt P43403); experiment: Kinase inhibition assay (33P transfer), Zap-70; conditions: Table 3; read-out: Zap-1
T5 construct: Kinases are expressed as either kinase domains or full length constructs; made in house
T5 sequence (P43403 1-619): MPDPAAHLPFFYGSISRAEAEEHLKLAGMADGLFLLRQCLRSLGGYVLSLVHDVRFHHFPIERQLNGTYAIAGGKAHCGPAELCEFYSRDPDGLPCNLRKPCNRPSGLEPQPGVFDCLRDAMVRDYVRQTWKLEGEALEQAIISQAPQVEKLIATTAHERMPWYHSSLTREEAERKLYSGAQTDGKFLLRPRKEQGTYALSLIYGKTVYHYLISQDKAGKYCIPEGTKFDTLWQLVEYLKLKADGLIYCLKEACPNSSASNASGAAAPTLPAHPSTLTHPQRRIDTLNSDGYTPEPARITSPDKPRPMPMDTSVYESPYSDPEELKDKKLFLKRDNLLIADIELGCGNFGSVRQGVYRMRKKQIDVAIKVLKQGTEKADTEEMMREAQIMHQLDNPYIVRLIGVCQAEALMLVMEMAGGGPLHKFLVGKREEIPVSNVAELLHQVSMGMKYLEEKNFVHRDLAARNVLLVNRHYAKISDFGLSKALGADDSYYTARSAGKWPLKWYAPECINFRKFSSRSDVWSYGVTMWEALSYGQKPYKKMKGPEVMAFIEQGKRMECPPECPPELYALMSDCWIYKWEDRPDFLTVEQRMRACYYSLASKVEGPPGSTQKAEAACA
In short: (§2)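 Filterless plate radiometric format: immobilized poly(Glu,Tyr) 4:1 or poly(Arg,Ser) 3:1, 33P-labelled ATP, tagged recombinant kinase (some with regulatory partners). Incorporated label counted after phosphoric acid wash.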

[6] = biological target: T6, Lyn (Homo sapiens, UniProt P07948); experiment: Kinase inhibition assay (33P transfer), Lyn; conditions: Table 6, Lyn-1 kinase inhibition class
T6 construct: Kinases are expressed as either kinase domains or full length constructs; made in house
In short: as §1

[7] = biological target: T7, Kdr (Homo sapiens, UniProt P35968); experiment: Kinase inhibition assay (33P transfer), Kdr; conditions: Table 3; read-out: KDR-1
T7 construct: Kinases are expressed as either kinase domains or full length constructs; made in house
In short: as §2

[8] = biological target: T8, Lck (Homo sapiens, UniProt P06239); experiment: Kinase inhibition assay (33P transfer), Lck; conditions: Table 3; read-out: Lck-1
T8 construct: Kinases are expressed as either kinase domains or full length constructs; made in house
In short: as §2

[9] = biological target: T9, AKT (Homo sapiens, UniProt Q9Y243); experiment: Kinase inhibition assay (33P transfer), AKT; conditions: Table 2, kinase inhibition class; read-out: AKT3-1
T9 construct: Kinases are expressed as either kinase domains or full length constructs; made in house
In short: as §2

[10] = biological target: T10, EGFR (Homo sapiens, UniProt P00533); experiment: Kinase inhibition assay (33P transfer), EGFR; conditions: Table 2, kinase inhibition class; read-out: EGFR-1
T10 construct: Kinases are expressed as either kinase domains or full length constructs; made in house
In short: as §1

[11] = biological target: T11, Src (Homo sapiens, UniProt P12931); experiment: Kinase inhibition assay (33P transfer), Src; conditions: Table 6, Src-1 kinase inhibition class
T11 construct: Kinases are expressed as either kinase domains or full length constructs; made in house
In short: as §1

T9 sequence (Q9Y243 whole entry, the tested form may be a part): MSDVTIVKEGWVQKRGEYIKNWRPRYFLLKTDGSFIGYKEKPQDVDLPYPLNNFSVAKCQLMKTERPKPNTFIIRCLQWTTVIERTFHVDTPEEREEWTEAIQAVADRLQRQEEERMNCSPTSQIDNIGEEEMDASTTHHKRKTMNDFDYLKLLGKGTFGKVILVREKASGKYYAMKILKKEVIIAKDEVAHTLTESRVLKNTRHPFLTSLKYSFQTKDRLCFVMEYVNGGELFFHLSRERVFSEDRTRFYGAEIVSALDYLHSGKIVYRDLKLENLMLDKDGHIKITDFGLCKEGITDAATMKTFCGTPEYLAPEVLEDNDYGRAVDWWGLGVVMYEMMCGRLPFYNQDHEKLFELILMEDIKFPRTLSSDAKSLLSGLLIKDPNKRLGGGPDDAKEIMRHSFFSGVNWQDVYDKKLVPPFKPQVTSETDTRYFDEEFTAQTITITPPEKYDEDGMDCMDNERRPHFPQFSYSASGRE
T7 sequence (P35968 20-1356, species assumed): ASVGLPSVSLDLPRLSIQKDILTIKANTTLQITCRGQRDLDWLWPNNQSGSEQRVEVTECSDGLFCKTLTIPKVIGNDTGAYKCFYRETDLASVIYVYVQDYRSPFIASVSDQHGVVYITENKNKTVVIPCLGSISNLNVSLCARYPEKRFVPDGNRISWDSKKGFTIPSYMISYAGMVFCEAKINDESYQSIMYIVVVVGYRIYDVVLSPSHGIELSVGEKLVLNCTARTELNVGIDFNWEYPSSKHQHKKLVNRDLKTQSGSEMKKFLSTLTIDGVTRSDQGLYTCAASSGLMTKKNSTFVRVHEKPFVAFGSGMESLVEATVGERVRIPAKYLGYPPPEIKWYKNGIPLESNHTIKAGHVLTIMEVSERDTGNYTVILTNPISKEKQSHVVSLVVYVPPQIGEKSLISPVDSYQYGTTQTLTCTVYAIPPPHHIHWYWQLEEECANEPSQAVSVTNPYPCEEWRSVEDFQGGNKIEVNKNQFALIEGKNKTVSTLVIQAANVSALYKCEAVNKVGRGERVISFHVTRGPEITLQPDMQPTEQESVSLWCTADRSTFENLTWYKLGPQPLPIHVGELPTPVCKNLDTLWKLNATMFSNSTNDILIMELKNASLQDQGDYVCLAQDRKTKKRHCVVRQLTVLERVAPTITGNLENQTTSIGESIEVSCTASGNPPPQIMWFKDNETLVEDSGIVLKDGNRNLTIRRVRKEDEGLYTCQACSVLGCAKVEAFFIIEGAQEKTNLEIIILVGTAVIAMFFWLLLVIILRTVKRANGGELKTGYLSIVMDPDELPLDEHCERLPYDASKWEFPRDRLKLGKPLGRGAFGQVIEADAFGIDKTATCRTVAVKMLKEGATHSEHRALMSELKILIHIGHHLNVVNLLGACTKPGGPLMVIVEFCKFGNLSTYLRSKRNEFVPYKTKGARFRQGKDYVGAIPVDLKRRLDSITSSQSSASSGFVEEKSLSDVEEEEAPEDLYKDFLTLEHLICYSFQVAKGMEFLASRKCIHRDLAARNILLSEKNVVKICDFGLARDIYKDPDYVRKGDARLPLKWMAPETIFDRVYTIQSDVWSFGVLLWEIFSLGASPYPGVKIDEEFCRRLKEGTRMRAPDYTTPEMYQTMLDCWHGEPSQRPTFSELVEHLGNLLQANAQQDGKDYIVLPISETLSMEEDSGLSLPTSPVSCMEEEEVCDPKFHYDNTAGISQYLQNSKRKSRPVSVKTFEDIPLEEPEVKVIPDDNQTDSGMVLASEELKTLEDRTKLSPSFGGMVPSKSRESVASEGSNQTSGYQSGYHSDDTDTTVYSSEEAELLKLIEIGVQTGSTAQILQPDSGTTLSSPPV
T11 sequence (P12931 whole entry, species assumed, the tested form may be a part): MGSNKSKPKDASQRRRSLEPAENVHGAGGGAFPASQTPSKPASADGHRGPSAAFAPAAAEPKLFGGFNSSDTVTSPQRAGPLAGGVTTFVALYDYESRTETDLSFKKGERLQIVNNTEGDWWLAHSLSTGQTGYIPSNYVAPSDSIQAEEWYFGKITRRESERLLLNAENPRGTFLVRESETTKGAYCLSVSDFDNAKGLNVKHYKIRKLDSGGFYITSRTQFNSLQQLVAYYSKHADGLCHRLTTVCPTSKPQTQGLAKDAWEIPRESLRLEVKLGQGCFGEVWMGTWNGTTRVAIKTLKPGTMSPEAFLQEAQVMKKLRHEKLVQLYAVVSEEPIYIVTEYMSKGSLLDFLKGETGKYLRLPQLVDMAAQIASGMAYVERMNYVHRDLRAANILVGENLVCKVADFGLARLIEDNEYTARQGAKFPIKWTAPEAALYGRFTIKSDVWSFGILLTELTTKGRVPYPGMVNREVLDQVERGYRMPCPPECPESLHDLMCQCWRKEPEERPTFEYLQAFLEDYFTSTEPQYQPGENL
T3 sequence (P07949 29-1114): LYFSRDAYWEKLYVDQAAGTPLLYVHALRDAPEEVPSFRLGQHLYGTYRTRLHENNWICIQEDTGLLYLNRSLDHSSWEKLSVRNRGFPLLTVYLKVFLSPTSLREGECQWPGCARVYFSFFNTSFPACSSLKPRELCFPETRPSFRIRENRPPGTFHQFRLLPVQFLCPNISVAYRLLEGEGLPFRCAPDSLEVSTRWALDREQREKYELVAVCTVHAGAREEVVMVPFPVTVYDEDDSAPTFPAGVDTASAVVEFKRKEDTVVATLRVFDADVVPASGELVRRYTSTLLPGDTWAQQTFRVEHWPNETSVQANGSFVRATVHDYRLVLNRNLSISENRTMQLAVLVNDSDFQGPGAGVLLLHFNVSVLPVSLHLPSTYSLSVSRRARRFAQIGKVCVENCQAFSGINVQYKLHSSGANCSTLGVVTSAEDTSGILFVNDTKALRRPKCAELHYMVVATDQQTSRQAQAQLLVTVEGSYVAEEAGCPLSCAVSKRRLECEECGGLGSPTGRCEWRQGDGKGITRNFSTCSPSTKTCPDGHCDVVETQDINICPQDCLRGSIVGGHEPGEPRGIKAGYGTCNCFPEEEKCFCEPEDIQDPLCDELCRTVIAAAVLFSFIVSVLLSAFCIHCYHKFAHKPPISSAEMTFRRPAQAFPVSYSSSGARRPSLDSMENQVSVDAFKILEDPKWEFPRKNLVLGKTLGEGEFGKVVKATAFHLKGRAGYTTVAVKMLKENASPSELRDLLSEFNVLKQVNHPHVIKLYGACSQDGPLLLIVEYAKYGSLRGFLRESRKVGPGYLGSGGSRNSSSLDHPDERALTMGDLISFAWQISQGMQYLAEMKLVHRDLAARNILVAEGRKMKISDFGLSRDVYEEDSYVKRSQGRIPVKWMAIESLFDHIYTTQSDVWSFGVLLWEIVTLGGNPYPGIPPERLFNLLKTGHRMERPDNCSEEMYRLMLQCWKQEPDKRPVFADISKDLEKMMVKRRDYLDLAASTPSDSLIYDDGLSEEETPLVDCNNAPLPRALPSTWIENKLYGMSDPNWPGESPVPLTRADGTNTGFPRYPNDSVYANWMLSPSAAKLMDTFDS
T8 sequence (P06239 whole entry, species assumed, the tested form may be a part): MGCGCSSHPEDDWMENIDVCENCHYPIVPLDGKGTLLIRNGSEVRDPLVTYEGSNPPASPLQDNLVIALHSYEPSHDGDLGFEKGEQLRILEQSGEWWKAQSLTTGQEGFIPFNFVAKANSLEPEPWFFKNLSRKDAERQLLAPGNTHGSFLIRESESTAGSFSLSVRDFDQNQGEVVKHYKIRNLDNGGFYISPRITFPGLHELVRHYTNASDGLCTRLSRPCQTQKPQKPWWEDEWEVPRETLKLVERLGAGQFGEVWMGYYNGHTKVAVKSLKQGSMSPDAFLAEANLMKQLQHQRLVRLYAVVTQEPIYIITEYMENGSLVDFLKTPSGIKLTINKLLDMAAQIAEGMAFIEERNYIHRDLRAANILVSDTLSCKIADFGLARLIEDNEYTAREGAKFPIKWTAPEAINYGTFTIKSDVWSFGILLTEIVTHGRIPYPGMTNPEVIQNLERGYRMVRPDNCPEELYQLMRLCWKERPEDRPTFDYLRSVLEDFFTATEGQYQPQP
T6 sequence (P07948 whole entry, species assumed, the tested form may be a part): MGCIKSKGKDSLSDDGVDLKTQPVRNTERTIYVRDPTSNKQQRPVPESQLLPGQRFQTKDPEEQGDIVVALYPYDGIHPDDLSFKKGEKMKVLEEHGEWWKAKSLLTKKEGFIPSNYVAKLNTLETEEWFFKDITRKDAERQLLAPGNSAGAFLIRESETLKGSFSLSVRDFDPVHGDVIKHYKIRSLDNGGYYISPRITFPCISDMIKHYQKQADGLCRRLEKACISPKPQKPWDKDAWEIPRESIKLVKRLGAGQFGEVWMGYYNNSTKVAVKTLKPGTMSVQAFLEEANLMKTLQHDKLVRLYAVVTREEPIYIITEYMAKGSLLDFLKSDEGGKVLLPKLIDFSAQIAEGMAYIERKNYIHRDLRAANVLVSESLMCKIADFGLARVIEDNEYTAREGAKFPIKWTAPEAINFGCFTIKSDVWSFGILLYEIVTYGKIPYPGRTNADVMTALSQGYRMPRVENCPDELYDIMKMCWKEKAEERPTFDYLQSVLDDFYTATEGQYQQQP
T4 sequence (P06241 whole entry, species assumed, the tested form may be a part): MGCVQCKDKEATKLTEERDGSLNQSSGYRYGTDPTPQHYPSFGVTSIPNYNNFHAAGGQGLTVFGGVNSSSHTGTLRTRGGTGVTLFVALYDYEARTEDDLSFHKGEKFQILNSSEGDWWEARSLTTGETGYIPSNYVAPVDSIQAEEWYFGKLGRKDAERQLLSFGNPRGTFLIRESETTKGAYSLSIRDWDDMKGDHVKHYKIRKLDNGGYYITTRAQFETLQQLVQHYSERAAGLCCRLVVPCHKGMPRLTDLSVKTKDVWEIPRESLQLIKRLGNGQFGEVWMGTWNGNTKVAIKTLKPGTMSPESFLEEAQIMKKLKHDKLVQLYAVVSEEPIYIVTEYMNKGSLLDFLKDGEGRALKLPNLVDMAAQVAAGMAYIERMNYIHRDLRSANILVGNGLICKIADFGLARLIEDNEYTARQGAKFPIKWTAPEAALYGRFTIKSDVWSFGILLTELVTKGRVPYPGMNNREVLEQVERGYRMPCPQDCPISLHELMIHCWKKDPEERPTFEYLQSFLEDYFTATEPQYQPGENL

| IC50 [1] [µM] | IC50 [2] [µM] | IC50 [3] [µM] | IC50 [4] [µM] | IC50 [5] [µM] | IC50 [6] [µM] | IC50 [7] [µM] | IC50 [8] [µM] | IC50 [9] [µM] | IC50 [10] [µM] | IC50 [11] [µM] | SMILES |
| --- | --- | --- | --- | --- | --- | --- | --- | --- | --- | --- | --- |
| > 10.5 | 0.931 to 5.59 | > 10.5 | 5.59 to 8.15 | > 10.5 | 5.59 to 8.15 | 5.59 to 8.15 | 8.15 to 10.5 | > 10.5 | < 0.931 | > 10.5 | COc1cc(Nc2ncnc(Nc3ccc(OCc4ccccc4)cc3)n2)cc(OC)c1 [Compound 156] |
| > 10.9 | – | > 10.9 | > 10.9 | > 10.9 | > 10.9 | 0.971 to 5.83 | > 10.9 | > 10.9 | > 10.9 | > 10.9 | COc1cc(Nc2ncnc(-n3ccc4cc(Cl)ccc43)n2)cc(OC)c1OC [Compound 198] |
| > 9.99 | – | < 0.888 | 0.888 to 5.33 | > 9.99 | < 0.888 | < 0.888 | 5.33 to 7.77 | > 9.99 | < 0.888 | 0.888 to 5.33 | COc1cc(Nc2ncnc(Nc3ccc(Br)cc3F)n2)cc(OC)c1OC [Compound 41] |
| 11.9 to 15.3 | – | 1.36 to 8.18 | < 1.36 | > 15.3 | < 1.36 | 1.36 to 8.18 | 1.36 to 8.18 | 1.36 to 8.18 | < 1.36 | < 1.36 | Cc1cccc(Nc2ncnc(Nc3ccc(O)cc3)n2)c1 [Compound 107] |
| 0.94 to 5.64 | – | < 0.94 | < 0.94 | > 10.6 | < 0.94 | < 0.94 | 0.94 to 5.64 | 8.23 to 10.6 | < 0.94 | < 0.94 | COc1cc(Nc2ncnc(Nc3cc(-c4cccs4)n[nH]3)n2)cc(OC)c1OC [Compound 318] |
| > 9.31 | – | > 9.31 | > 9.31 | > 9.31 | > 9.31 | 4.96 to 7.24 | 7.24 to 9.31 | > 9.31 | > 9.31 | > 9.31 | COc1cc(Nc2ncnc(-n3ccc4cc(OCc5ccccc5)ccc43)n2)cc(OC)c1OC [Compound 200] |
| 0.977 to 5.86 | – | < 0.977 | < 0.977 | > 11 | < 0.977 | < 0.977 | 0.977 to 5.86 | 8.55 to 11 | < 0.977 | < 0.977 | COc1cc(Nc2ncnc(Nc3cc(-c4ccco4)n[nH]3)n2)cc(OC)c1OC [Compound 308] |
| > 9.88 | – | > 9.88 | > 9.88 | > 9.88 | > 9.88 | > 9.88 | > 9.88 | > 9.88 | 0.878 to 5.27 | > 9.88 | COc1cc(Nc2ncnc(N(CC(=O)O)c3ccc4c(c3)OCO4)n2)cc(OC)c1OC [Compound 319] |
| 5.13 to 7.49 | – | 0.856 to 5.13 | 5.13 to 7.49 | > 9.63 | 0.856 to 5.13 | < 0.856 | 0.856 to 5.13 | 5.13 to 7.49 | 0.856 to 5.13 | 0.856 to 5.13 | COCCOc1ccc(Nc2ncnc(Nc3cc(-c4ccco4)n[nH]3)n2)cc1OCCOC [Compound 328] |
| 7.93 to 10.2 | – | 0.906 to 5.44 | 0.906 to 5.44 | > 10.2 | < 0.906 | < 0.906 | 0.906 to 5.44 | > 10.2 | 0.906 to 5.44 | < 0.906 | COCCOc1ccc(Nc2ncnc(Nc3ccc(C)c(O)c3)n2)cc1OCCOC [Compound 125] |
| 8.62 to 11.1 | – | < 0.986 | 0.986 to 5.91 | > 11.1 | < 0.986 | < 0.986 | 0.986 to 5.91 | > 11.1 | < 0.986 | 0.986 to 5.91 | COc1cc(Nc2ncnc(Nc3ccc(Cl)cc3F)n2)cc(OC)c1OC [Compound 306] |
| 1.01 to 6.04 | – | < 1.01 | < 1.01 | > 11.3 | < 1.01 | < 1.01 | 1.01 to 6.04 | > 11.3 | < 1.01 | < 1.01 | COCCOc1cc(Nc2ncnc(Nc3ccc(C)c(O)c3)n2)ccc1OC [Compound 127] |
| > 10.3 | – | > 10.3 | > 10.3 | > 10.3 | > 10.3 | 0.914 to 5.49 | > 10.3 | > 10.3 | 8 to 10.3 | > 10.3 | COc1cc2ccn(-c3ncnc(Nc4cc(OC)c(OC)c(OC)c4)n3)c2cc1OC [Compound 239] |
| > 9.14 | – | < 0.812 | > 9.14 | > 9.14 | > 9.14 | < 0.812 | > 9.14 | > 9.14 | > 9.14 | > 9.14 | COc1ccc2c(c1)c(CCNC(C)=O)cn2-c1ncnc(Nc2cc(OC)c(OC)c(OC)c2)n1 [Compound 339] |
| > 11 | – | > 11 | > 11 | > 11 | > 11 | < 0.982 | 0.982 to 5.89 | > 11 | 8.59 to 11 | > 11 | COCCOc1ccc(Nc2ncnc(-n3c(N)nc4ccccc43)n2)cc1OC [Compound 287] |
| > 10.6 | – | > 10.6 | > 10.6 | > 10.6 | > 10.6 | 0.942 to 5.65 | > 10.6 | > 10.6 | > 10.6 | > 10.6 | COc1cc(Nc2ncnc(N3CCc4cc([N+](=O)[O-])ccc43)n2)cc(OC)c1OC [Compound 187] |
| 6.62 to 9.66 | – | < 1.1 | 1.1 to 6.62 | > 12.4 | 1.1 to 6.62 | < 1.1 | 1.1 to 6.62 | > 12.4 | < 1.1 | > 12.4 | NC(=O)c1cccc(Nc2ncnc(Nc3cc(-c4ccco4)n[nH]3)n2)c1 [Compound 342] |
| > 9.49 | – | > 9.49 | > 9.49 | > 9.49 | 5.06 to 7.38 | 0.844 to 5.06 | 5.06 to 7.38 | > 9.49 | < 0.844 | > 9.49 | COc1ccc(Nc2ncnc(N(C/C=C/c3ccccc3)c3ccc(Cl)cc3)n2)cc1OC [Compound 974] |
| 6.04 to 8.81 | – | < 1.01 | 1.01 to 6.04 | > 11.3 | < 1.01 | < 1.01 | 1.01 to 6.04 | > 11.3 | < 1.01 | < 1.01 | COCCOc1ccc(Nc2ncnc(Nc3ccc(C)c(O)c3)n2)cc1OC [Compound 123] |
| > 13.3 | – | > 13.3 | 10.3 to 13.3 | > 13.3 | > 13.3 | < 1.18 | > 13.3 | > 13.3 | > 13.3 | > 13.3 | COc1cc(Nc2ncnc(-c3ccccc3)n2)cc(OC)c1OC [Compound 970] |
| > 11.4 | – | < 1.02 | < 1.02 | > 11.4 | < 1.02 | < 1.02 | < 1.02 | > 11.4 | < 1.02 | < 1.02 | COc1cc(Nc2ncnc(N3CCCc4ccccc43)n2)cc(OC)c1OC [Compound 609] |
| 5.21 to 7.6 | – | < 0.869 | < 0.869 | > 9.77 | < 0.869 | < 0.869 | 0.869 to 5.21 | > 9.77 | 0.869 to 5.21 | < 0.869 | COc1cc(Nc2ncnc(Nc3ccc(C)c(NS(C)(=O)=O)c3)n2)cc(OC)c1OC [Compound 305] |

Source: patent publication US7074789B2, “Kinase inhibitors” (Amgen Inc., priority 1999, dated 2006)
